PubChem BioAssay AID248 (DTP/NCI, 2004)
Values joined by “and” are separate entries in the source; they are usually repeats but may differ in a detail not shown here. Equal values may be shown once. Inconclusive results and toxic doses are left out.

System: L1210 leukemia ip in BDF1 mice, survival T/C
Assay: NCI In Vivo Anticancer Drug Screen. Data for tumor model L1210 Leukemia (intraperitoneal) in B6D2F1 (BDF1) mice
Conditions: endpoint: mean survival time, higher = longer survival
How it was run: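 Tumor was transplanted into mice, which were then dosed with test compound or vehicle alone. Survival was recorded for each group, and the treated figure was expressed relative to the control figure.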

[1] = dose: 50.0 mg/kg/injection, schedule: Q04DX003 (ip), vehicle: Klucel (hydroxypropylcellulose) (HPC)
[2] = dose: 100.0 mg/kg/injection, schedule: Q01DX009 (ip), vehicle: saline with Tween-80
[3] = dose: 200.0 mg/kg/injection, schedule: Q01DX009 (ip), vehicle: saline with Tween-80
[4] = dose: 100.0 mg/kg/injection, schedule: Q04DX003 (ip), vehicle: Klucel (hydroxypropylcellulose) (HPC)
[5] = dose: 200.0 mg/kg/injection, schedule: Q04DX003 (ip), vehicle: Klucel (hydroxypropylcellulose) (HPC)
[6] = dose: 100.0 mg/kg/injection, schedule: Q04DX003 (ip), vehicle: saline with Tween-80
[7] = dose: 200.0 mg/kg/injection, schedule: Q04DX003 (ip), vehicle: saline with Tween-80
[8] = dose: 400.0 mg/kg/injection, schedule: Q04DX003 (ip), vehicle: saline with Tween-80
[9] = dose: 100.0 mg/kg/injection, schedule: Q04DX002 (ip), vehicle: Klucel (hydroxypropylcellulose) (HPC)
[10] = dose: 200.0 mg/kg/injection, schedule: Q04DX002 (ip), vehicle: Klucel (hydroxypropylcellulose) (HPC)
[11] = dose: 100.0 mg/kg/injection, schedule: Q01DX001 (ip), vehicle: carboxymethylcellulose (CMC)
[12] = dose: 200.0 mg/kg/injection, schedule: Q01DX001 (ip), vehicle: carboxymethylcellulose (CMC)
[13] = dose: 100.0 mg/kg/injection, schedule: Q04DX003 (ip), vehicle: saline
[14] = dose: 200.0 mg/kg/injection, schedule: Q04DX003 (ip), vehicle: saline
[15] = dose: 400.0 mg/kg/injection, schedule: Q04DX003 (ip), vehicle: saline
[16] = dose: 400.0 mg/kg/injection, schedule: Q04DX002 (ip), vehicle: Klucel (hydroxypropylcellulose) (HPC)
[17] = dose: 50.0 mg/kg/injection, schedule: Q01DX009 (ip), vehicle: saline
[18] = dose: 100.0 mg/kg/injection, schedule: Q01DX009 (ip), vehicle: saline
[19] = dose: 200.0 mg/kg/injection, schedule: Q01DX009 (ip), vehicle: saline
[20] = dose: 100.0 mg/kg/injection, schedule: Q01DX009 (ip), vehicle: Klucel (hydroxypropylcellulose) (HPC)
[21] = dose: 200.0 mg/kg/injection, schedule: Q01DX009 (ip), vehicle: Klucel (hydroxypropylcellulose) (HPC)
[22] = dose: 400.0 mg/kg/injection, schedule: Q01DX009 (ip), vehicle: Klucel (hydroxypropylcellulose) (HPC)
[23] = dose: 75.0 mg/kg/injection, schedule: Q01DX009 (ip), vehicle: Klucel (hydroxypropylcellulose) (HPC)
[24] = dose: 150.0 mg/kg/injection, schedule: Q01DX009 (ip), vehicle: Klucel (hydroxypropylcellulose) (HPC)

NNc1ccccc1-c1nc(N)nc(N)n1
T/C (dose: 9.38 mg/kg/injection, schedule: Q01DX001 (ip), vehicle: other): 109 % of control
T/C (dose: 18.75 mg/kg/injection, schedule: Q01DX001 (ip), vehicle: other): 112 % of control
T/C (dose: 37.5 mg/kg/injection, schedule: Q01DX001 (ip), vehicle: other): 118 % of control

Cc1ccnc(NS(=O)(=O)c2ccc(N=Nc3nc4[nH]c(N)nc(=S)c4[nH]3)cc2)n1
T/C (dose: 1.56 mg/kg/injection, schedule: Q01DX009 (ip), vehicle: Klucel (hydroxypropylcellulose) (HPC)): 230 % of control
T/C (dose: 12.5 mg/kg/injection, schedule: Q01DX009 (ip), vehicle: Klucel (hydroxypropylcellulose) (HPC)): 94 % of control and 108 % of control
T/C (dose: 25.0 mg/kg/injection, schedule: Q04DX003 (ip), vehicle: Klucel (hydroxypropylcellulose) (HPC)): 162 % of control and 180 % of control
T/C [1]: 173 % of control and 182 % of control and 192 % of control

O=C(Nc1cccc(F)c1)Oc1ccc(OCc2ccccc2)cc1
T/C (dose: 100.0 mg/kg/injection, schedule: Q04DX002 (ip), vehicle: saline): 101 % of control
T/C (dose: 200.0 mg/kg/injection, schedule: Q04DX002 (ip), vehicle: saline): 90 % of control
T/C (dose: 400.0 mg/kg/injection, schedule: Q04DX002 (ip), vehicle: saline): 90 % of control

Nc1ccc(N=Nc2ccc(S(=O)(=O)O)cc2)cc1
T/C [2]: 87 % of control
T/C [3]: 95 % of control
T/C (dose: 400.0 mg/kg/injection, schedule: Q01DX009 (ip), vehicle: saline with Tween-80): 97 % of control

O=[N+]([O-])c1ccc2c(c1)n([O-])c1ccccc1[n+]2=O
T/C [1]: 89 % of control
T/C (dose: 100.0 mg/kg/injection, schedule: Q01DX001 (ip), vehicle: Klucel (hydroxypropylcellulose) (HPC)): 97 % of control
T/C [4]: 90 % of control and 92 % of control
T/C (dose: 200.0 mg/kg/injection, schedule: Q01DX001 (ip), vehicle: Klucel (hydroxypropylcellulose) (HPC)): 95 % of control
T/C [5]: 97 % of control and 101 % of control

CSCCCNC(=O)c1csc(CCNC(=O)c2ccccc2)n1
T/C [6]: 100 % of control
T/C [7]: 100 % of control
T/C [8]: 91 % of control

CC(=O)C(C(C)=O)c1cc(NS(=O)(=O)c2ccccc2)ccc1O
T/C (dose: 100.0 mg/kg/injection, schedule: Q01DX001 (ip), vehicle: saline with Tween-80): 100 % of control
T/C (dose: 200.0 mg/kg/injection, schedule: Q01DX001 (ip), vehicle: saline with Tween-80): 104 % of control
T/C (dose: 400.0 mg/kg/injection, schedule: Q01DX001 (ip), vehicle: saline with Tween-80): 89 % of control

Cn1nccc2c(=O)n(C)c(=O)nc1-2
T/C [9]: 97 % of control
T/C [10]: 95 % of control

CNC(=O)c1cn(C2OC(CO)C(O)C2O)c2ncnc(N)c12 (stereo not drawn)
T/C (dose: 88.0 mg/kg/injection, schedule: Q01DX001 (ip), vehicle: water): 120 % of control
T/C (dose: 400.0 mg/kg/injection, schedule: Q01DX001 (ip), vehicle: water): 117 % of control

Nc1cc(F)c2c(c1)Cc1cc(F)ccc1-2
T/C (dose: 50.0 mg/kg/injection, schedule: Q01DX001 (ip), vehicle: carboxymethylcellulose (CMC)): 101 % of control
T/C [11]: 109 % of control
T/C [12]: 95 % of control

CCC(c1ccc2cc(OC)ccc2c1)C(CC(=O)O)C(=O)OC (stereo not drawn)
T/C [4]: 100 % of control
T/C [5]: 96 % of control
T/C (dose: 400.0 mg/kg/injection, schedule: Q04DX003 (ip), vehicle: Klucel (hydroxypropylcellulose) (HPC)): 91 % of control

O=C(CCCCl)CC(O)(C(F)(F)F)C(F)(F)F
T/C [2]: 104 % of control
T/C [6]: 101 % of control
T/C [3]: 93 % of control
T/C [7]: 94 % of control
T/C [8]: 100 % of control

CCOC(=O)C1NC(=O)N(c2ccccc2)C1=O (stereo not drawn)
T/C [13]: 103 % of control
T/C [14]: 108 % of control
T/C [15]: 104 % of control

COc1ccc(OC)c(NC(=O)Oc2ccc(Br)cc2Br)c1
T/C [9]: 104 % of control
T/C [10]: 104 % of control
T/C [16]: 86 % of control

CCN(CC)CCOc1ccccc1C(C)C
T/C (dose: 20.0 mg/kg/injection, schedule: Q04DX003 (ip), vehicle: saline): 118 % of control
T/C (dose: 40.0 mg/kg/injection, schedule: Q04DX003 (ip), vehicle: saline): 97 % of control
T/C (dose: 80.0 mg/kg/injection, schedule: Q04DX003 (ip), vehicle: saline): 94 % of control
T/C [13]: 101 % of control

C1=C/C2OC2CCCC/1 (stereo not drawn)
T/C [17]: 96 % of control
T/C [18]: 97 % of control
T/C [13]: 102 % of control
T/C [19]: 102 % of control
T/C [14]: 87 % of control
T/C [15]: 93 % of control

O=C1c2ccccc2C(=O)c2ccccc21
T/C [20]: 102 % of control
T/C [21]: 88 % of control
T/C [22]: 100 % of control

O=C(CC(=Nc1ccccc1)c1ccccc1)c1ccccc1.O=C(CC(=Nc1ccccc1)c1ccccc1)c1ccccc1.[Cu]
T/C (dose: 50.0 mg/kg/injection, schedule: Q04DX003 (ip), vehicle: saline with Tween-80): 89 % of control
T/C [6]: 90 % of control

CNc1nc(Cl)nc2ccccc12
T/C (dose: 50.0 mg/kg/injection, schedule: Q01DX009 (ip), vehicle: saline with Tween-80): 105 % of control
T/C [2]: 112 % of control
T/C [3]: 102 % of control

O=C(C[n+]1ccccc1Cc1ccccc1)c1ccccc1
T/C [6]: 94 % of control
T/C [13]: 102 % of control

C[n+]1ccccc1/C=N/O
T/C (dose: 25.0 mg/kg/injection, schedule: Q01DX009 (ip), vehicle: saline): 105 % of control
T/C (dose: 33.0 mg/kg/injection, schedule: Q01DX009 (ip), vehicle: saline): 100 % of control
T/C [17]: 98 % of control
T/C [23]: 102 % of control
T/C (dose: 75.0 mg/kg/injection, schedule: Q01DX009 (ip), vehicle: saline): 98 % of control
T/C (dose: 75.0 mg/kg/injection, schedule: Q04DX003 (ip), vehicle: saline): 91 % of control
T/C [18]: 100 % of control and 103 % of control
T/C [13]: 103 % of control
T/C [24]: 108 % of control
T/C (dose: 150.0 mg/kg/injection, schedule: Q04DX003 (ip), vehicle: saline): 109 % of control
T/C [19]: 97 % of control
T/C [14]: 94 % of control
T/C (dose: 300.0 mg/kg/injection, schedule: Q04DX003 (ip), vehicle: saline): 98 % of control

CCCC(C)NNC(C)CCC (stereo not drawn)
T/C (dose: 75.0 mg/kg/injection, schedule: Q01DX001 (ip), vehicle: acetone): 96 % of control
T/C (dose: 75.0 mg/kg/injection, schedule: Q01DX001 (ip), vehicle: other): 114 % of control
T/C (dose: 150.0 mg/kg/injection, schedule: Q01DX001 (ip), vehicle: acetone): 101 % of control

O=c1cc(-c2ccccc2)oc2ccccc12
T/C [20]: 97 % of control
T/C [21]: 92 % of control
T/C [22]: 108 % of control

O=C1Nc2ccc(Br)cc2C1=Nc1cccnc1
T/C [9]: 116 % of control
T/C [10]: 95 % of control
T/C [16]: 116 % of control

O=P(CCCCCCP(=O)(N1CC1)N1CC1)(N1CC1)N1CC1
T/C (dose: 25.0 mg/kg/injection, schedule: Q01DX009 (ip), vehicle: carboxymethylcellulose (CMC)): 112 % of control and 115 % of control
T/C (dose: 50.0 mg/kg/injection, schedule: Q01DX009 (ip), vehicle: carboxymethylcellulose (CMC)): 120 % of control and 121 % of control
T/C [11]: 116 % of control
T/C [12]: 103 % of control
T/C (dose: 200.0 mg/kg/injection, schedule: Q01DX009 (ip), vehicle: carboxymethylcellulose (CMC)): 98 % of control and 101 % of control

CN(N)P(=O)(Nc1ccccc1)Nc1ccccc1
T/C [1]: 98 % of control
T/C [23]: 102 % of control
T/C [4]: 91 % of control
T/C [24]: 115 % of control
T/C [5]: 96 % of control
T/C (dose: 300.0 mg/kg/injection, schedule: Q01DX009 (ip), vehicle: Klucel (hydroxypropylcellulose) (HPC)): 100 % of control
